Reference: article PMC9218946, “Identification of a Subtype-Selective Allosteric Inhibitor of GluN1/GluN3 NMDA Receptors” (Frontiers in Pharmacology, 2022)

Legend:
Type in all cases: cell-based
[1] = test system: GluN1/GluN2A/GluN3A; test: Whole-cell patch-clamp on HEK-293 cells transiently transfected with GluN1/GluN2A/GluN3A (1:1:2); settings: 30 μM WZB117; 100 μM glutamate and 100 μM glycine; mixed receptor population
Experimental: Whole-cell patch-clamp recordings were performed at room temperature (22–25°C) using an EPC-10 amplifier and Patch Master Software (HEKA). Pipettes were pulled from borosilicate glass capillaries (World Precision Instruments), and the resistances were 3–5 MΩ when filled with the intracellular solution. The extracellular solution contained (in mM): 140 NaCl, 2.8 KCl, 1 CaCl2, 10 HEPES and 20 sucrose (290–300 mOsm), pH adjusted to 7.3 using NaOH. The pipette solution contained (in mM): 115 CsF, 10 CsCl, 10 HEPES and 10 BAPTA (280–290 mOsm), pH adjusted to 7.2 using CsOH ([Grand et al., 2018]). When recording in hippocampal neurons, the extracellular solution contained (in mM): 140 NaCl, 5 KCl, 1 CaCl2, 1.25 MgCl2, 10 glucose, and 10 HEPES, and the pH was adjusted to 7.4 using NaOH, and the pipette solution contained (in mM): 140 KCl, 1 MgCl2, 10 EGTA, and 10 HEPES, and the pH was adjusted to 7.2 using KOH ([Xie et al., 2020]). Drug-containing solutions were applied through an RSC-200 Rapid Solution Changer with a 9-tube head (BioLogic Co., France), in which the cell is positioned close to the output of a capillary. […]
Supplementary Figure S3 Effects of WZB117 on currents from HEK-293 cells co-expressing GluN1/GluN2A/GluN3A subunits. […] The data of GluN1/GluN2A were analyzed from Figure 3D. […]

[2] = biological target: T1, native GluN1/GluN3 receptors (Rattus norvegicus, UniProt P35439+Q9R1M7); test: Whole-cell patch-clamp, glycine-induced currents after CGP-78608 in acutely isolated hippocampal neurons; settings: 10 μM WZB117; glycine-induced currents after incubation with CGP-78608
T1 construct: endogenous in cells; host or cells: acutely isolated hippocampal neurons, Sprague-Dawley rats P7-14
Experimental: Hippocampal neurons were obtained from Sprague-Dawley rats (aged P7-14). Briefly, the isolated hippocampal tissues were cut into approximately […] slices along the sagittal plane and were digested with 3 mg/ml proteinase (Sigma-Aldrich) at 32°C for 8 min. Then 1 mg/ml bovine serum albumin (Sangon Biotech) and 1 mg/ml trypsin inhibitor (Sigma-Aldrich) were used to stop the digestion. A few slices of the hippocampus were gently blown into single cells with the dissecting solution, then transferred to a dish and left to rest for 20 min before experiments. The dishes were preprocessed. Essentially, the bottom of the dish was covered with discarded cell suspension the day before the experiment and was washed and dried the next day, which prevented the neurons from sticking to the bottom too tightly. The dissecting solution contained (in mM): 82 Na2SO4, 30 K2SO4, 5 MgCl2, 1 Na pyruvate, 10 HEPES, and 20 glucose. The pH was adjusted to 7.2 using NaOH ([Xie et al., 2020]).
Whole-cell patch-clamp recordings were performed at room temperature (22–25°C) using an EPC-10 amplifier and Patch Master Software (HEKA). Pipettes were pulled from borosilicate glass capillaries (World Precision Instruments), and the resistances were 3–5 MΩ when filled with the intracellular solution. […]

[3] = test system: GluN1/GluN2 (2A-2D) receptors; test: TEVC recording in Xenopus oocytes expressing GluN1/GluN2 (2A-2D); settings: 30 μM WZB117; 100 μM glycine and 100 μM glutamate coapplied
Experimental: Two-electrode voltage-clamp (TEVC) recordings were performed on Xenopus oocytes expressing various subtypes of recombinant NMDARs. Each oocyte was injected with a mixture of 0.5–1.0 ng cDNAs or cRNAs encoding wild-type (WT) or mutant GluN1 (GluN1-1a or GluN1-4a) and GluN2 (2A-2D) or GluN3 (3A-3B) at a ratio of 1:1. The mutant GluN1-4a ^F484A/T518L was injected together with GluN3B to boost the currents of GluN1/GluN3B receptors, and WT GluN1-1a was used unless otherwise stated. The cRNAs of GluN1-4a, GluN3A and GluN3B were transcribed from corresponding DNAs using the mMESSAGE mMACHINE T7 Ultra kit (Life Technologies) according to the manufacturer’s instructions, and the others not specified were cDNAs. TEVC recording was performed 24–72 h post injection in extracellular solution containing (in mM): 100 NaCl, 0.3 BaCl2, 2.5 KCl, 0.01 DTPA and 5 HEPES, and the pH was adjusted to 7.3 using NaOH. All recordings were carried out at a holding potential of −60 mV.

T1 sequence (Q9R1M7 24-1135, other chains not shown): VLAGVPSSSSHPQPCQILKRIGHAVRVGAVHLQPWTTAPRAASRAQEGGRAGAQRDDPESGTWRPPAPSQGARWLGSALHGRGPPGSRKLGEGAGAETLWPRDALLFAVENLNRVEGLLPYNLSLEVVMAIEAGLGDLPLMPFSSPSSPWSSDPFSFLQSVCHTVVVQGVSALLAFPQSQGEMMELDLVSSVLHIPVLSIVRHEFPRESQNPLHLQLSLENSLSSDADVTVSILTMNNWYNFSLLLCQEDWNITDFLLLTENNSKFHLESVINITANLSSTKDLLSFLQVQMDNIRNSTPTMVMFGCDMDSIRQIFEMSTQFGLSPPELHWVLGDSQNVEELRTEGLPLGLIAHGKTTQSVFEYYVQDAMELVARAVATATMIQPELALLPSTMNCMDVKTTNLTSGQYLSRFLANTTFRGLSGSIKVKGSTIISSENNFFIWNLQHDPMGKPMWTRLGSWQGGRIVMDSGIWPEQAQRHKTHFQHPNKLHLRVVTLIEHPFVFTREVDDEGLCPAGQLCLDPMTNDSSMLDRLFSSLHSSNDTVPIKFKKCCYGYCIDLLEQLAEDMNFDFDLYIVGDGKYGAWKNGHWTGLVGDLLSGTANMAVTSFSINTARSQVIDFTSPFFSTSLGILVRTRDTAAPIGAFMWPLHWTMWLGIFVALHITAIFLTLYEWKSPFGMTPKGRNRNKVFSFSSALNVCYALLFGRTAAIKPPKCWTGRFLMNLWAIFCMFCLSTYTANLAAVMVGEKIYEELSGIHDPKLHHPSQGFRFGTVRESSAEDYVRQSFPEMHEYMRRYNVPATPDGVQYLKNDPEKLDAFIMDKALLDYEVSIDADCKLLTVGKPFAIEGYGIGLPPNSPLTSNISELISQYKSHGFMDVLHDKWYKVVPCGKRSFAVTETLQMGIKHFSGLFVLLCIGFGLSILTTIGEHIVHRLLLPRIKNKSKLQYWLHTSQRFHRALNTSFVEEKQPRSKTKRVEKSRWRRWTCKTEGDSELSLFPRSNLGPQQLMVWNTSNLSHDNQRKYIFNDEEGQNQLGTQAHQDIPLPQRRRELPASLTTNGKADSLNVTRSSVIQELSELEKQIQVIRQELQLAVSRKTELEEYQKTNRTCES

I drug/I control [2]: 0.18 ± 0.03
inhibition of currents [3]: relatively weak inhibition
SMILES: O=C(Oc1cccc(F)c1OC(=O)c1cccc(O)c1)c1cccc(O)c1 [WZB117, 3-fluoro-1,2-phenylene bis(3-hydroxybenzoate)]
I drug/I cotrol [1]: 0.22 ± 0.04
